Test results from US20090149417A1, “Methods and compositions for the treatment of cancer using benzopyrone-type PARP inhibitors” (priority 2007, published 2009).
Values joined by “and” are separate entries in the source; they are usually repeats but may differ in a detail not shown here. Equal values may be shown once.

Tests used:
[1] = tested on: Colo375FG metastatic pancreatic adenocarcinoma cells; assay: Live cell number (Coulter counter, methylene blue, PI exclusion); assay type: cell-based, human
Method: Colo375FG metastatic pancreatic adenocarcinoma cells are cultured in Dulbecco Modified Eagle Medium with 10% fetal bovine serum. Cells are plated at 10^5 per P100 or at 10^4 per P60 (for assays requiring up to 3 days of culture), in the presence of different concentrations of BiPar compounds and other agents, or DMSO control. Following treatment, the number of attached cells is measured using Coulter counter, and by staining with 1% methylene blue. Methylene blue is dissolved in 50%-50% mixture of Methanol and water. Cells are plated in 24- or 96-well plates and treated with compounds as indicated, then media are aspirated, cells are washed with PBS, fixed in methanol for 5-10 min, washed and the plates are allowed to dry completely. Methylene blue solution is added to wells and plates are incubated for 5 min. Staining solution is removed and plates are washed with dH2O. After plates are completely dry, a small amount of 1N HCl is added to each well to extract the methylene blue. The OD readout at 600 nm and a calibration curve are used to determine cell number.
IIIg (6-nitro-5-iodo-benzopyrone) is dissolved directly from dry powder to 10 mM stock solution in DMSO for each separate experiment, and then the entire volume of the stock solution is used to prepare working concentrations in cell culture medium to avoid any possibility of precipitation and the corresponding loss of compound. Control experiments are carried out with the matching volume/concentration of the vehicle (DMSO).
(§1) After the addition of drugs and incubation, cells are trypsinized and aliquots of the samples are taken for counting and PI (Propidium Iodide) exclusion assay. One part of the cells is centrifuged and resuspended in 0.5 ml ice-cold PBS containing 5 μg/ml of PI. The other part of the cells is fixed in ice-cold 70% ethanol and stored in a freezer overnight. For cell cycle analysis, cells are stained with propidium iodide (PI) by standard procedures. Cellular DNA content is determined by flow cytometry using BD LSRII FACS, and the percentages of cells in G1, S or G2/M are determined using ModFit software.
Colo375FG metastatic pancreatic adenocarcinoma cells are obtained from ATCC and cultured in Dulbecco Modified Eagle Medium with 10% fetal bovine serum. Cells are plated at 10^5 cells per P100 cell culture dish or at 10^4 cells per P60 cell culture dish in the presence of different concentrations compounds or DMSO control. Following treatment, the number of attached cells is measured using Coulter counter, and by staining with 1% methylene blue. Methylene blue is dissolved in 50%-50% mixture of Methanol and water. Cells are plated in 24- or 96-well plates and treated as planned, media are aspirated, cells are washed with PBS, fixed in methanol for 5-10 min, methanol is aspirated and plates are allowed to dry completely. Methylene blue solution is added to wells and plates are incubated for 5 min. Staining solution is removed and plates are washed with dH2O until washes are no longer blue. After plates are completely dry, a small amount of 1N HCl is added to each well to extract the methylene blue. The OD readout at 600 nm and a calibration curve are used to determine cell number.
Compounds of the invention are dissolved directly from dry powder to 10 mM stock solution in DMSO for each separate experiment. Control experiments are carried out with the matching volume/concentration of the vehicle (DMSO). In these controls, the cells show no changes in their growth or cell cycle distribution.
as §1, with “ug/ml” for “μg/ml”, “Cellular DNA content is determined by flow cytometry using BD LSRII FACS, and the percentages of cells in G1, S or G2/M are determined using ModFit software.” left out

[2] = tested on: Colo375FG metastatic pancreatic adenocarcinoma cells; assay: Bromodeoxyuridine (BrdU) labeling assay (flow cytometry); assay type: cell-based, human
Method: 50 μl of BrdU (Sigma Chemical Co., St. Louis, Mo.) stock solution (1 mM) is added to give 10 μM BrdU final concentration. The cells are incubated for 30 min at 37° C. and fixed in ice-cold 70% ethanol and stored in a cold room (4° C.) overnight. Fixed cells are centrifuged and washed once in 2 ml PBS, then resuspended in 0.7 ml of denaturation solution (0.2 mg/ml pepsin in 2 N HCl) for 15 min at 37° C. in the dark and suspended with 1.04 ml 1M Tris buffer (Trizma base, Sigma Chemical Co.) to terminate the hydrolysis and washed in 2 ml PBS.
(§2) Cells are resuspended in 100-μl anti-BrdU antibody (DakoCytomation, Carpinteria, Calif.) with 1:100 dilution in TBFP permeable buffer (0.5% Tween-20, 1% bovine serum albumin and 1% fetal bovine serum in PBS) and incubated for 25 min at room temperature in the dark and washed in 2 ml PBS. The primary antibody-labeled cells are resuspended in 100 μl Alexa Fluor F(ab′)2 fragment of goat anti-mouse IgG (H+L) (2 mg/mL) (Molecular Probes, Eugene, Oreg.) with 1:200 dilution in TBFP permeable buffer and incubated for 25 min at room temperature in the dark and washed in 2 ml PBS, then resuspended in 0.5 ml ice-cold PBS containing 1 μg/ml 4′,6-diamidino-2-phenylindole (DAPI) for at least 30 min. All cell samples are analyzed with a BD LSR II (BD Biosciences, San Jose, Calif.).
as §2, with “50 μl of BrdU (Sigma Chemical Co., St. Louis, Mo.) stock solution (1 mM) is added to give 10 μM BrdU final concentration. The cells are incubated for 30 min at 37 °C and fixed in ice-cold 70% ethanol and stored in a cold room (4 °C) overnight. Fixed cells are centrifuged and washed once in 2 ml PBS, then resuspended in 0.7 ml of denaturation solution (0.2 mg/ml pepsin in 2 N HCl) for 15 min at 37° C. in the dark and suspended with 1.04 ml 1M Tris buffer (Trizma base, Sigma Chemical Co.) and washed in 2 ml PBS. Then cells” for “Cells”

[3] = combination of IIIg and oxaliplatin
[4] = combination: IIIg 2.5 μM + OxaliPt 10 μM
[5] = combination: IIIg 2.5 μM + OxaliPt 20 μM
[6] = combination: IIIg 12.5 μM + OxaliPt 10 μM
[7] = combination: IIIg 12.5 μM + OxaliPt 20 μM
[8] = combination: IIIg 25 μM + OxaliPt 10 μM
[9] = combination: IIIg 25 μM + OxaliPt 20 μM
[10] = Compound IIIc 0 mM, OxaliPt 10 mM

With O=c1ccc2c(I)c([N+](=O)[O-])ccc2o1 [IIIg, 5-iodo-6-nitro-benzopyrone] the “Live Cell (%)” value ([1]; IIIg 2.5 μM, OxaliPt 0 μM) was 100% and 118%, the “Percentage of live cells” value [1, 3] was “significantly reduces the percentage of live cells” and the “Live Cell (%)” value [1, 4] was 62%. For the same compound, the “Live Cell (%)” value [1, 5] was 27%, the “Live Cell (%)” value [1, 6] was 22% and the “Live Cell (%)” value [1, 7] was 13%. The “Live Cell (%)” value [1, 8] was 11%, the “Live Cell (%)” value [1, 9] was 7% and the “S-phase % BrdU+” value ([2]; IIIg 2.5 μM, OxaliPt 0 μM) was 94.89%. The “S-phase % BrdU+” value ([2]; IIIg 12.5 μM, OxaliPt 0 μM) was 93.1%, the “S-phase % BrdU+” value ([2]; IIIg 25 μM, OxaliPt 0 μM) was 75.18% and the “Proliferation (percentage of BrdU positive cells)” value [2, 3] was “inhibits the proliferation”. The S-phase % BrdU+ [2, 4] was 86.3%, the “S-phase % BrdU+” value [2, 5] was 65.32% and the “S-phase % BrdU+” value [2, 6] was 67.5%. For the same compound, the “S-phase % BrdU+” value [2, 7] was 33%, the “S-phase % BrdU+” value [2, 8] was 24.69% and the “S-phase % BrdU+” value [2, 9] was 33.85%.
In the case of O=C1[O][Pt]2([NH][C@@H]3CCCC[C@H]3[NH]2)[O]C1=O [OxaliPt, oxaliplatin, reference compound], the “Live Cell (%)” value [1, 10] was 54%, the “Live Cell (%)” value ([1]; Compound IIIc 0 mM, OxaliPt 20 mM) was 29% and the “Live Cell (%)” value ([1]; IIIg 0 μM, OxaliPt 10 μM) was 54%. For the same compound, the “Live Cell (%)” value ([1]; IIIg 0 μM, OxaliPt 20 μM) was 29%, the “Cells in S-phase of cell cycle (% BrdU+)” value [2, 10] was 81.74% and the “S-phase % BrdU+” value ([2]; IIIg 0 μM, OxaliPt 10 μM) was 81.74%. The “S-phase % BrdU+” value ([2]; IIIg 0 μM, OxaliPt 20 μM) was 63.12%.
